Assay results as given in the NIST ThermoML archive (doi:10.1016/j.jct.2016.06.034).
± gives the expanded uncertainty stated by the source.

Experiment: mn = molality of the nth substance listed, in mol/kg
Conditions: for electrical conductivity / speed of sound / mass density: 84.5 kPa, Liquid; for electrical conductivity: Alternating current cell with electrodes; for speed of sound: Frequency=3 MHz, Sing-around technique in a fixed-path interferometer; for mass density: Vibrating tube method; for surface tension liquid-gas: platinum plate method

Q: Which results are given for CCCCCCCCCCn1cc[n+](C)c1.[Br-] [1-decyl-3-methylimidazolium bromide] + O?
A: electrical conductivity (293.15 K, m1 = 0.00228): 0.0203 ± 0.0039 S/m; electrical conductivity (293.15 K, m1 = 0.00309): 0.0273 ± 0.0038 S/m; electrical conductivity (293.15 K, m1 = 0.00382): 0.0335 ± 0.0036 S/m; electrical conductivity (293.15 K, m1 = 0.00535): 0.0458 ± 0.0035 S/m; electrical conductivity (293.15 K, m1 = 0.00813): 0.0678 ± 0.0035 S/m; electrical conductivity (293.15 K, m1 = 0.01113): 0.0909 ± 0.0035 S/m; electrical conductivity (293.15 K, m1 = 0.01397): 0.112 ± 0.0036 S/m; electrical conductivity (293.15 K, m1 = 0.01667): 0.132 ± 0.0036 S/m; electrical conductivity (293.15 K, m1 = 0.01935): 0.152 ± 0.0036 S/m; electrical conductivity (293.15 K, m1 = 0.02193): 0.17 ± 0.0037 S/m; electrical conductivity (293.15 K, m1 = 0.02449): 0.187 ± 0.0037 S/m; electrical conductivity (293.15 K, m1 = 0.02695): 0.204 ± 0.0038 S/m; electrical conductivity (293.15 K, m1 = 0.02918): 0.219 ± 0.0039 S/m; electrical conductivity (293.15 K, m1 = 0.0311): 0.231 ± 0.004 S/m; electrical conductivity (293.15 K, m1 = 0.03299): 0.243 ± 0.0041 S/m; electrical conductivity (293.15 K, m1 = 0.03499): 0.256 ± 0.0041 S/m; electrical conductivity (293.15 K, m1 = 0.03691): 0.269 ± 0.0042 S/m; electrical conductivity (293.15 K, m1 = 0.03912): 0.282 ± 0.0043 S/m; electrical conductivity (293.15 K, m1 = 0.04083): 0.292 ± 0.0043 S/m; electrical conductivity (293.15 K, m1 = 0.0425): 0.3 ± 0.0041 S/m; electrical conductivity (293.15 K, m1 = 0.04369): 0.305 ± 0.004 S/m; electrical conductivity (293.15 K, m1 = 0.04545): 0.311 ± 0.004 S/m; electrical conductivity (293.15 K, m1 = 0.04751): 0.317 ± 0.004 S/m; electrical conductivity (293.15 K, m1 = 0.04952): 0.323 ± 0.0041 S/m; electrical conductivity (293.15 K, m1 = 0.05149): 0.327 ± 0.004 S/m; electrical conductivity (293.15 K, m1 = 0.05344): 0.332 ± 0.0041 S/m; electrical conductivity (293.15 K, m1 = 0.05532): 0.336 ± 0.0042 S/m; electrical conductivity (293.15 K, m1 = 0.058): 0.342 ± 0.0042 S/m; electrical conductivity (293.15 K, m1 = 0.05963): 0.345 ± 0.0044 S/m; speed of sound (293.15 K, m1 = 0.0095): 1484.6 ± 1.2 m/s; speed of sound (293.15 K, m1 = 0.01379): 1485.5 ± 1.2 m/s; speed of sound (293.15 K, m1 = 0.01652): 1486.1 ± 1.2 m/s; speed of sound (293.15 K, m1 = 0.02179): 1487.2 ± 1.2 m/s; speed of sound (293.15 K, m1 = 0.02615): 1488 ± 1.2 m/s; speed of sound (293.15 K, m1 = 0.03106): 1489 ± 1.2 m/s; speed of sound (293.15 K, m1 = 0.03338): 1489.4 ± 1.2 m/s; speed of sound (293.15 K, m1 = 0.03819): 1490.3 ± 1.2 m/s; speed of sound (293.15 K, m1 = 0.0406): 1490.5 ± 1.2 m/s; speed of sound (293.15 K, m1 = 0.04332): 1490.9 ± 1.2 m/s; speed of sound (293.15 K, m1 = 0.04614): 1491.1 ± 1.2 m/s; speed of sound (293.15 K, m1 = 0.05515): 1491.4 ± 1.2 m/s; speed of sound (293.15 K, m1 = 0.06396): 1491.6 ± 1.2 m/s; speed of sound (293.15 K, m1 = 0.07815): 1491.8 ± 1.2 m/s; speed of sound (293.15 K, m1 = 0.122): 1492.4 ± 1.2 m/s; speed of sound (293.15 K, m1 = 0.1726): 1493 ± 1.2 m/s; speed of sound (293.15 K, m1 = 0.2247): 1493.8 ± 1.2 m/s; speed of sound (293.15 K, m1 = 0.2539): 1494.1 ± 1.2 m/s; mass density (293.15 K, m1 = 0.0095): 998.589 ± 0.11 kg/m3; mass density (293.15 K, m1 = 0.01379): 998.766 ± 0.11 kg/m3; mass density (293.15 K, m1 = 0.01652): 998.876 ± 0.11 kg/m3; mass density (293.15 K, m1 = 0.02179): 999.09 ± 0.11 kg/m3; mass density (293.15 K, m1 = 0.02615): 999.268 ± 0.11 kg/m3; mass density (293.15 K, m1 = 0.03106): 999.467 ± 0.11 kg/m3; mass density (293.15 K, m1 = 0.03338): 999.559 ± 0.11 kg/m3; mass density (293.15 K, m1 = 0.03819): 999.755 ± 0.11 kg/m3; mass density (293.15 K, m1 = 0.0406): 999.853 ± 0.11 kg/m3; mass density (293.15 K, m1 = 0.04332): 999.954 ± 0.11 kg/m3; mass density (293.15 K, m1 = 0.04614): 1000.06 ± 0.11 kg/m3; mass density (293.15 K, m1 = 0.05515): 1000.37 ± 0.11 kg/m3; mass density (293.15 K, m1 = 0.06396): 1000.67 ± 0.11 kg/m3; mass density (293.15 K, m1 = 0.07815): 1001.15 ± 0.11 kg/m3; mass density (293.15 K, m1 = 0.122): 1002.6 ± 0.11 kg/m3; mass density (293.15 K, m1 = 0.1726): 1004.24 ± 0.11 kg/m3; mass density (293.15 K, m1 = 0.2247): 1005.89 ± 0.11 kg/m3; mass density (293.15 K, m1 = 0.2539): 1006.79 ± 0.11 kg/m3; surface tension liquid-gas (298.15 K, m1 = 0.00412): 54.68 ± 0.36 mN/m; surface tension liquid-gas (298.15 K, m1 = 0.00741): 50.92 ± 0.5 mN/m; surface tension liquid-gas (298.15 K, m1 = 0.01142): 47.08 ± 0.4 mN/m; surface tension liquid-gas (298.15 K, m1 = 0.01559): 43.86 ± 0.36 mN/m; surface tension liquid-gas (298.15 K, m1 = 0.01865): 42.13 ± 0.34 mN/m; surface tension liquid-gas (298.15 K, m1 = 0.02466): 39.8 ± 0.24 mN/m; surface tension liquid-gas (298.15 K, m1 = 0.02893): 38.51 ± 0.22 mN/m; surface tension liquid-gas (298.15 K, m1 = 0.03351): 37.65 ± 0.21 mN/m; surface tension liquid-gas (298.15 K, m1 = 0.03974): 37.31 ± 0.2 mN/m; surface tension liquid-gas (298.15 K, m1 = 0.04641): 37.49 ± 0.21 mN/m; surface tension liquid-gas (298.15 K, m1 = 0.05292): 38.51 ± 0.21 mN/m; surface tension liquid-gas (298.15 K, m1 = 0.05743): 38.59 ± 0.2 mN/m; surface tension liquid-gas (298.15 K, m1 = 0.06462): 38.74 ± 0.2 mN/m; surface tension liquid-gas (298.15 K, m1 = 0.0747): 38.93 ± 0.2 mN/m; surface tension liquid-gas (298.15 K, m1 = 0.0901): 38.82 ± 0.21 mN/m; surface tension liquid-gas (298.15 K, m1 = 0.1219): 38.81 ± 0.21 mN/m; surface tension liquid-gas (298.15 K, m1 = 0.1645): 38.91 ± 0.21 mN/m; electrical conductivity (298.15 K, m1 = 1e-05): 0.000165 S/m; electrical conductivity (298.15 K, m1 = 3e-05): 0.00031 S/m; electrical conductivity (298.15 K, m1 = 4e-05): 0.000454 S/m; electrical conductivity (298.15 K, m1 = 5e-05): 0.000592 S/m; electrical conductivity (298.15 K, m1 = 7e-05): 0.000739 S/m; electrical conductivity (298.15 K, m1 = 0.0001): 0.00103 S/m; electrical conductivity (298.15 K, m1 = 0.00012): 0.00132 S/m; electrical conductivity (298.15 K, m1 = 0.00018): 0.00193 S/m; electrical conductivity (298.15 K, m1 = 0.00025): 0.00268 ± 0.0045 S/m; electrical conductivity (298.15 K, m1 = 0.0004): 0.00418 ± 0.0045 S/m; electrical conductivity (298.15 K, m1 = 0.0006): 0.00622 ± 0.0044 S/m; electrical conductivity (298.15 K, m1 = 0.00096): 0.00987 ± 0.0044 S/m; electrical conductivity (298.15 K, m1 = 0.00171): 0.0172 ± 0.0044 S/m; electrical conductivity (298.15 K, m1 = 0.00264): 0.0265 ± 0.0043 S/m; electrical conductivity (298.15 K, m1 = 0.00371): 0.0368 ± 0.0042 S/m; electrical conductivity (298.15 K, m1 = 0.00504): 0.0494 ± 0.0043 S/m; electrical conductivity (298.15 K, m1 = 0.00703): 0.0685 ± 0.0041 S/m; electrical conductivity (298.15 K, m1 = 0.00984): 0.0933 ± 0.004 S/m; electrical conductivity (298.15 K, m1 = 0.01267): 0.117 ± 0.004 S/m; electrical conductivity (298.15 K, m1 = 0.01525): 0.139 ± 0.004 S/m; electrical conductivity (298.15 K, m1 = 0.01793): 0.16 ± 0.004 S/m; electrical conductivity (298.15 K, m1 = 0.02048): 0.181 ± 0.0041 S/m; electrical conductivity (298.15 K, m1 = 0.023): 0.201 ± 0.0042 S/m; electrical conductivity (298.15 K, m1 = 0.02535): 0.219 ± 0.0043 S/m; electrical conductivity (298.15 K, m1 = 0.02772): 0.237 ± 0.0044 S/m; electrical conductivity (298.15 K, m1 = 0.02961): 0.251 ± 0.0045 S/m; electrical conductivity (298.15 K, m1 = 0.03171): 0.267 ± 0.0045 S/m
